Results reported in patent US6362166B1, “Antipicornaviral compounds and methods for their use and preparation” (Agouron Pharmaceuticals, Inc., priority 1996, dated 2002).
Read-outs that look alike come from different tables or passages of the source.

Experiments:
[1] = target: T1, Recombinant Rhinovirus 3C protease (RVP) serotype-14 (Human rhinovirus 14, UniProt P03303); test: Inhibition of Rhinovirus Protease (fluorescence resonance energy transfer assay), serotype 14; assay type: biochemical, human rhinovirus (HRV); settings: for kobs/I: progress curves in enzyme start experiments; for kinact/KI: pH 7.6, read-out: kobs/I
T1 construct: Recombinant Rhinovirus 3C proteases from serotypes 14, 16, 2 or 89; made in house
T1 sequence (P03303 1538-1719): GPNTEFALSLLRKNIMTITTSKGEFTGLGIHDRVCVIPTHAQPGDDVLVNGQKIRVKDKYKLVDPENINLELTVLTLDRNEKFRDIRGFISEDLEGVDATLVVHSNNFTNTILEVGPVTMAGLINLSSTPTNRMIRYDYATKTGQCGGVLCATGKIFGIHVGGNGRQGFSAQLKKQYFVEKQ

[2] = target: T2, Recombinant Rhinovirus 3C protease (RVP) serotype 16 (Human rhinovirus 16, UniProt Q82122); test: Inhibition of Rhinovirus Protease (fluorescence resonance energy transfer assay), serotype 16; assay type: biochemical, human rhinovirus (HRV); settings: RVP serotype 16, progress curves in enzyme start experiments; for kinact/KI: pH 7.6, read-out: kobs/I
T2 construct: Recombinant Rhinovirus 3C proteases from serotypes 14, 16, 2 or 89; made in house
T2 sequence (Q82122 1511-1693): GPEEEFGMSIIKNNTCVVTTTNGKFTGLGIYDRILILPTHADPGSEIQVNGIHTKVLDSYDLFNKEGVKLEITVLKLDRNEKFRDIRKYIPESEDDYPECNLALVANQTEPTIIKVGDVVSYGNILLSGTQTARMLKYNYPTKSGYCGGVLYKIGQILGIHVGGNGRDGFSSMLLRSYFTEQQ
Protocol: (§1) Stock solution (50 mM, in DMSO) of various compounds were prepared; dilutions were in the same solvent. Recombinant Rhinovirus 3C proteases from serotypes 14, 16, 2 or 89 were prepared by the following standard chromatographic procedures: (1) ion exchange using Q Sepharose Fast Flow from Pharmacia; (2) affinity chromatography using Affi-Gel Blue from Biorad; and (3) sizing using Sephadex G-100 from Pharmacia. Assays contained 2% DMSO, 50 mM tris pH 7.6, 1 mM EDTA, a compound at the indicated concentrations, approximately 1 μM substrate, and 50-100 nM protease. […] The kobs/I values were obtained from reactions initiated by addition of enzyme rather than substrate. RVP activity is measured in the fluorescence resonance energy transfer assay. The substrate was (N-terminal) DABCYL-([…]Gyl)-EDANS. In the uncleaved peptide, the EDANS fluorescence was quenched by the proximal DABCYL moeity. When the peptide was cleaved, the quenching was relieved, and activity was measured as an increase in fluorescence signal.
(§2) In the above table, all data is RVP serotype-14 unless otherwise noted in parentheses. All strains of human rhinovirus (HRV) were purchased from American Type Culture Collection (ATCC), except for serotype 14, which was produced from the infectious cDNA clone constructed and supplied to us by Dr. Roland Rueckert at the Institute for Molecular Virology, University of Wisconsin, Madison, Wisc. […] The data in the column designated kobs/I was measured from progress curves in enzyme start experiments.

[3] = target: T3, Recombinant Rhinovirus 3C protease (RVP) serotype 2 (Human rhinovirus 2, UniProt P04936); test: Inhibition of Rhinovirus Protease (fluorescence resonance energy transfer assay), serotype 2; assay type: biochemical, human rhinovirus (HRV); settings: for kobs/I: progress curves in enzyme start experiments; for kinact/KI: pH 7.6, progress curves in enzyme start experiments, read-out: kobs/I
T3 construct: Recombinant Rhinovirus 3C proteases from serotypes 14, 16, 2 or 89; made in house
T3 sequence (P04936 1508-1690): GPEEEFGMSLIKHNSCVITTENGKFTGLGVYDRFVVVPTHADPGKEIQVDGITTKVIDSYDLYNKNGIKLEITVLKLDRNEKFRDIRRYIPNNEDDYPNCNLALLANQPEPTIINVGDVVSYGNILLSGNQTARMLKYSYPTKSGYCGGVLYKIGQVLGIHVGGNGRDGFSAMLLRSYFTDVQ
Protocol: as §1, §2

[4] = test system: HRV-14; test: Antirhinoviral HI-HeLa Cell Culture Assay (Cell Protection Assay, XTT dye reduction); assay type: cell-based, human rhinovirus (HRV) serotype-14
Summary of the method: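 Protection measured via XTT dye reduction (450/650 nm) two days after compound treatment of HI-HeLa cells, mock-infected or infected with cDNA-derived HRV-14 at m.o.i. 0.13. CC50 divided by EC50 gives the therapeutic index.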

[5] = test system: HI-HeLa cells; test: Cytotoxicity in mock-infected HI-HeLa cells (antirhinoviral assay, XTT); assay type: cell-based
[6] = as above; assay type: cell-based; settings: human; mock-infected HI-HeLa cells; two days; XTT; read-out: CC50
[7] = RVP serotype-14, 10 minute preincubation, substrate start, read-out: INHIB (Ki)
[8] = HI-HeLa cells infected with HRV-14, m.o.i. 0.13, two days, XTT, read-out: EC50
[9] = mock-infected HI-HeLa cells, two days, XTT, read-out: CC50
[10] = Rhinovirus B, HRV14, 48 h, HI-HeLa cells infected with HRV-14, m.o.i. 0.13, two days, XTT, read-out: EC50

SMILES	Ki [1, 7]	kobs/I ([1]; RVP serotype-14)	kobs/I [2]	kobs/I [3]	EC50 [4, 8]	CC50 [5, 9]	CC50 [5]	Ki [1]	kinact/KI [1]	kinact/KI [2]	kinact/KI [3]	EC50 [4, 10]	CC50 at 2 days [6]	EC50 ([4]; Rhinovirus B, HRV14, 48 h)
CCOC(=O)/C=C/[C@H](CCC(N)=O)NC(=O)[C@H](Cc1ccc(F)cc1)NC(=O)[C@H](CC(C)C)NC(=O)OCc1ccccc1 [Compound 35, Ethyl-3-[CBZ-L-Leu-L-(4-F-Phe)-L-Gln]-E-Propenoate]	16500 nM	46,388 M-1 sec-1	9,177 M-1 sec-1	2,357 M-1 sec-1	1800 nM	> 320000 nM								
CC(C)C[C@H](NC(=O)OCc1ccccc1)C(=O)N[C@@H](Cc1ccccc1)C(=O)N[C@H](/C=C/C(=O)N1CCCC1=O)CCC(N)=O [Compound 61]		125,940 M-1 sec-1	25,000 M-1 sec-1	14,000 M-1 sec-1	890 nM		56000 nM							
CC(C)C[C@H](NC(=O)OCc1ccccc1)C(=O)N[C@@H](Cc1ccccc1)C(=O)N[C@H](/C=C/C(=O)N1CCOC1=O)CCC(N)=O [Compound 62]		600,000 M-1 sec-1	300,000 M-1 sec-1	600,000 M-1 sec-1	1600 nM		> 100000 nM							
CCOC(=O)/C=C/[C@H](CCC(N)=O)NC(=O)[C@H](Cc1ccc(OC)cc1)NC(=O)[C@H](CC(C)C)NC(=O)OCc1ccccc1 [Compound 103]		29,200 M-1 sec-1	3,354 M-1 sec-1	1,106 M-1 sec-1	1700 nM		> 320000 nM							
CCOC(=O)/C=C/[C@H](CCC(N)=O)NC(=O)[C@H](Cc1ccccc1)NC(=O)[C@H](CC(C)C)NC(=O)SCc1ccccc1 [Compound 106]								2000 nM	280000 M⁻¹ s⁻¹	75000 M⁻¹ s⁻¹	28400 M⁻¹ s⁻¹	270 nM	> 320000 nM	
CCOC(=O)/C=C/[C@H](CCC(N)=O)NC(=O)[C@H](Cc1ccc(CO)cc1)NC(=O)[C@H](CC(C)C)NC(=O)OCc1ccccc1 [Compound 114]								≥ 1000 nM	82300 M⁻¹ s⁻¹		1970 M⁻¹ s⁻¹	550 nM	> 320000 nM	
CCOC(=O)/C=C/[C@H](CCC(N)=O)NC(=O)[C@H](Cc1ccccc1)NC(=O)[C@H](CC(C)C)NC(=O)SCC [Compound 120]								6000 nM	91300 M⁻¹ s⁻¹	20000 M⁻¹ s⁻¹	8900 M⁻¹ s⁻¹	460 nM	> 320000 nM	
CCOC(=O)/C=C/[C@H](CCC(N)=O)NC(=O)[C@H](CC1CCCCC1)NC(=O)[C@H](CC(C)C)NC(=O)OCc1ccccc1 [Compound 135]		16,270 M-1 sec-1	3,465 M-1 sec-1	671 M⁻¹ s⁻¹	1900 nM	> 320000 nM								
CCC[C@H](NC(=O)[C@H](CC(C)C)NC(=O)OCc1ccccc1)C(=O)N[C@H](/C=C/C(=O)OCC)CCC(N)=O [Compound 137]		2,344 M-1 sec-1	1,157 M-1 sec-1	643 M⁻¹ s⁻¹	224000 nM		> 320000 nM							
CCOC(=O)/C=C/[C@H](CCC(N)=O)NC(=O)[C@H](Cc1ccc(CCO)cc1)NC(=O)[C@H](CC(C)C)NC(=O)OCc1ccccc1 [Compound 139]		43,140 M-1 sec-1	1,259 M-1 sec-1	691 M⁻¹ s⁻¹	3500 nM		> 320000 nM							
CCOC(=O)/C=C/[C@H](CCC(N)=O)NC(=O)[C@H](Cc1ccccc1)NC(=O)[C@@H](NC(=O)OCc1ccccc1)C(C)C [Compound 146]		62,500 M-1 sec-1	16,900 M-1 sec-1	7,790 M-1 sec-1	380 nM		> 320000 nM							
CCOC(=O)C=CC(CCC(N)=O)NC(=O)C(Cc1ccccc1)NC(=O)C(CCc1ccccc1)NC(=O)OCc1ccccc1 (stereo not shown) [Compound 148]									57000 M⁻¹ s⁻¹	14800 M⁻¹ s⁻¹	8300 M⁻¹ s⁻¹	250 nM	> 320000 nM	
CCOC(=O)/C=C/[C@H](CCC(N)=O)NC(=O)[C@H](Cc1ccccc1)NC(=O)[C@H](CO)NC(=O)OCc1ccccc1 [Compound 149]		39,940 M-1 sec-1	7,700 M-1 sec-1	2,840 M-1 sec-1	1780 nM		> 320000 nM							
CCOC(=O)/C=C/[C@H](CCC(N)=O)NC(=O)[C@H](Cc1ccccc1)NC(=O)[C@H](CC(=O)N(C)C)NC(=O)OCc1ccccc1 [Compound 158]	17000 nM	22,600 M-1 sec-1	6,400 M-1 sec-1	2,200 M-1 sec-1	5900 nM		> 320000 nM							
CCOC(=O)/C=C/[C@H](CCC(N)=O)NC(=O)[C@H](Cc1ccccc1)NC(=O)[C@H](Cc1ccccc1)NC(=O)SCc1ccccc1 [Compound 161]		1,086,000 M-1 sec-1	126,000 M-1 sec-1	200,000 M-1 sec-1	170 nM		> 100000 nM							
CCOC(=O)/C=C/[C@H](CCC(N)=O)NC(=O)[C@H](Cc1ccccc1)NC(=O)[C@H](CCc1ccccc1)NC(=O)SCc1ccccc1 [Compound 162]		800,000 M-1 sec-1	80,000 M-1 sec-1	150,000 M-1 sec-1	320 nM		> 100000 nM							
CCOC(=O)/C=C/[C@H](CCC(N)=O)NC(=O)[C@H](Cc1ccccc1)NC(=O)[C@H](CSCc1ccccc1)NC(=O)OCc1ccccc1 [Compound 165]		97,000 M-1 sec-1	20,200 M-1 sec-1	5,600 M-1 sec-1	200 nM		> 100000 nM							
CCOC(=O)/C=C/[C@H](CCC(N)=O)NC(=O)[C@H](Cc1ccccc1)NC(=O)[C@H](C[S+]([O-])Cc1ccccc1)NC(=O)OCc1ccccc1 (stereo partly shown) [Compound 166]		40,900 M-1 sec-1	7,700 M-1 sec-1	3,500 M-1 sec-1	5600 nM		> 100000 nM							
CCOC(=O)/C=C/[C@H](CCC(N)=O)NC(=O)[C@H](Cc1ccccc1)NC(=O)[C@@H](NC(=O)SCC)C(C)(C)C [Compound 167, Ethyl-3-[Ethylthiocarbonyl-L-α-(t-Butyl-Gly)-L-Phe-L-Gln]-E-Propenoate]		165,400 M-1 sec-1	42,100 M-1 sec-1	10,700 M-1 sec-1	83 nM		> 100000 nM							
CCOC(=O)/C=C/[C@H](CCC(N)=O)NC(=O)[C@H](Cc1ccccc1)NC(=O)[C@H](CC(C)C)NC(=O)SC(C)C [Compound 170]		85,300 M-1 sec-1	30,000 M-1 sec-1	8,400 M-1 sec-1	200 nM		> 100000 nM							
CCOC(=O)/C(C)=C/[C@H](CCC(N)=O)NC(=O)[C@H](Cc1ccccc1)NC(=O)[C@H](CC(C)C)NC(=O)SC(C)C [Compound 171]		21,200 M-1 sec-1	3,250 M-1 sec-1	830 M⁻¹ s⁻¹	710 nM		> 100000 nM							
CCOC(=O)C=CC(CCC(N)=O)NC(=O)C(Cc1ccccc1)NC(=O)C(NC(=O)OCc1ccccc1)C(C)CC (stereo not shown) [Compound 172]		31,700 M-1 sec-1	6,000 M-1 sec-1	2,000 M-1 sec-1	790 nM		> 100000 nM							
CCOC(=O)/C=C/[C@H](CCC(N)=O)NC(=O)[C@H](Cc1ccccc1)NC(=O)[C@H](CSc1ccccc1)NC(=O)SC1CCCC1 [Compound 173, Ethyl-3-[Cyclopentylthiocarbonyl-L-(S-Ph-Cys)-L-Phe-L-Gln]-E-Propenoate]		1,000,000 M-1 sec-1	185,000 M-1 sec-1	113,000 M-1 sec-1	80 nM		> 100000 nM							
CCOC(=O)/C=C/[C@H](CCC(N)=O)NC(=O)[C@H](Cc1ccc(C)cc1)NC(=O)[C@@H](NC(=O)SC1CCCC1)C(C)C [Compound 183]								550 nM	500000 M⁻¹ s⁻¹	60000 M⁻¹ s⁻¹			> 100000 nM	30 nM
